Where two headings read alike, the source gives them in different places. Non-standard residues stand in square brackets, D forms with d. Residues, ends and D or L forms follow the SMILES beside them. Orn = NCCC[C@H](N)C(=O)O
Tests used:
[1] = Cytotoxicity, two-dimensional (monolayer) assay; type: cell-based; settings: human, HEK-293 cells, HEK-293 monolayer, necrotic cells by PI/Hoechst 33342 imaging, ± SEM, n=4, read-out: IC50, cytotoxic activity, two-dimensional assay; for IC50 at 10 min: 10 mins incubation; for IC50 at 1 h: 1 h incubation; for IC50 at 24 h: 24 hrs incubation; for IC50 at 72 h: 72 hrs incubation
Protocol: Screening of the cytotoxic activity of compounds in a two-dimensional (2D) format was designed in accordance with the previously obtained data[32] for the HeLa cell line. The cytotoxic action of peptides was quantified in the 96-well plate format at four time points after adding compounds – at 10 min, 1 h, 24 h and 72 h. […] The selected IC50 values for different incubation times are exemplified in Fig. 2.
Essential experimental details have been previously published by us.[79]
The cells were maintained in a culture till 70–80% confluence was reached and then seeded in a 96-well black-wall transparent-bottom plate (6055302, Revvity) with 200 μL of appropriate medium per well. The seeding density has been previously determined in the optimization experiments for each cell line: 3500 cells per well for 4T1; 20 000 cells per well for HEK-293; 20 000 cells per well for HeLa; 25 000 cells per well for HepG2; 8000 cells per well for LLC; 15 000 cells per well for MDA-MB-231. After 24 h incubation at 37 °C, the medium was removed and 100 μL of fresh medium was added. Two-fold serial dilution of compounds (256–0.5 μM, 11 points for closed forms of photoswitchable peptides; 128–0.25 μM, 11 points for open forms; 64–0.5, 8 points for GS) in the medium was prepared and dispensed in 100 μL per well. The plates were incubated with compounds for 10 min, 1 h, 24 h and 72 h. The staining solution consisting of 25 μM of Hoechst 33342 (62249, Thermo Fisher), 5 μM of propidium iodide (J66764-MC, Thermo Fisher) or ethidium homodimer-1 (E1169, Thermo Fisher), with 10% FBS in DPBS (21600044, Thermo Fisher) was prepared and added to wells in a volume of 50 μL for 20 min. Fluorescence images were acquired using an INCell Analyzer 6500 HS automatic imaging system with 20× objective lens (NA = 0.45) and 16 fields of view (FOV) per well. The numerical data were obtained using INCarta 1.13 and then analysed using GraphPad Prism 10.

[2] = test system: HMGB1 released by HepG2 cells; assay: HMGB1 release, bioluminescence immunoassay (Lumit HMGB1) in the supernatant; type: cell-based, human; settings: 64 μM, n=3
Protocol: HMGB1 was quantified (using a calibration curve) by a bioluminescence assay in the supernatant.
For this, 25 000 cells per well of HepG2 were seeded in 200 μL of complete DMEM in a 96-well black-wall transparent-bottom plate (655090, Greiner). After 24 h, the medium was aspired, and 100 μL of DPBS was added for rinsing and then aspired. Then, 100 μL of Leibovitz L-15 medium that contained 10% FBS was added. After that, 2× concentrated solutions of tested compounds (64 and 8 μM, triplicates for each time point) were prepared in the same Leibovitz L-15 medium in an intermediate plate and dispensed in a volume of 100 μL to the cell-containing plate. The calibration curve was constructed using a HMGB1 stock solution (1000–0.24 ng mL^−1, 4-fold dilution, 7 points, n = 2) from Lumit HMGB1 (Human/Mouse) immunoassay kit (W6110, Promega) and dispensed in a 96-well white-wall transparent-bottom working plate (353377, Falcon). After 30 min, 3 h and 24 h, aliquots from the intermediate plate (tested compounds) were transferred to the working plate. […] The plate was shaken for 1 min and incubated for 1 h at room temperature. […] The luminescence signal was collected throughout the visible range (360–700 nm). The data were analyzed using GraphPad Prism 10.

[3] = 2D monolayer, Table S1 series (with LMB033)
[4] = monolayer (2D), Table S2 series (with LMB002)

Work on `CC(C)C[C@@H]1NC(=O)[C@H](CCCN)NC(=O)[C@H](C(C)C)NC(=O)[C@@H]2CCCN2C(=O)[C@@H](Cc2ccccc2)NC(=O)[C@H](CC(C)C)NC(=O)[C@H](CCCN)NC(=O)[C@H](C(C)C)NC(=O)[C@@H]2CCCN2C(=O)[C@@H](Cc2ccccc2)NC1=O` [Gramicidin S, gramicidin S] (cyclo(V[Orn]L[dF]PV[Orn]L[dF]P)) yielded an IC50 at 10 min [1, 3] of 12.9 ± 0.4 µM, an IC50 at 1 h [1, 3] of 11.6 ± 0.1 µM and an IC50 at 24 h [1, 3] of 8.3 ± 0.2 µM. For the same compound, the IC50 at 72 h [1, 3] was 8.4 ± 0.7 µM, the IC50 at 10 min [1, 4] was 15.4 ± 0.1 µM and the IC50 at 1 h [1, 4] was 12.7 ± 0.2 µM. The IC50 at 24 h [1, 4] was 10.4 ± 0.1 µM, the IC50 at 72 h [1, 4] was 11.1 ± 0.1 µM and the “HMGB1 detected in the supernatant” value ([2]; 30 min post-treatment, interpolated from calibration curve) was 50 ng/mL. The “HMGB1 detected in the supernatant” value ([2]; at 3 h, constant up to 24 h) was 10 ng/mL.

Reference: PMC12013366, “In vitro evaluation of the immunogenic potential of gramicidin S and its photocontrolled analogues” (RSC Medicinal Chemistry, 2025)
